Measurements taken from US4199504A (priority 1978, dated 1980).

Columns and labels:
[1] = Titration pKa' in 66 percent DMF; type: physicochemical
P388 leukemia = P388 leukemia transplanted in mice, tumor inhibition or prolongation of survival; type: in vivo
Description: (§1) The compounds of this invention and those preparable by the process disclosed herein are active against transplanted tumors in mice in vivo.
(§2) The following table--Table 1--gives the results of experiments in which mice bearing transplanted Gardner lymphosarcoma (GLS), C3 H mammary tumor, B16 melanoma, P 1534(J) leukemia, P388 leukemia or 755 adenocarcinoma were treated with a compound of this invention. In the table, column 1 gives the name of the compound; column 2, the tumor system employed; column 3, the dosage schedule and column 4, the percent inhibition of tumor growth or increased life span.

[2] = test system: experimental malignancies; conditions: naturally-occurring Vinca alkaloids; prior patents; cited from earlier work
B16 melanoma = B16 melanoma transplanted in mice, tumor inhibition or prolongation of survival; type: in vivo
Description: as §1, §2

CCC1(O)CC2CN(CCc3c([nH]c4ccccc34)C(C(=O)OC)(c3cc4c(cc3OC)N(C)C3C(O)(C(=O)NCCCCNC(=O)C5(O)C(O)C6(CC)C=CCN7CCC8(c9cc(C%10(C(=O)OC)CC%11CN(CCc%12c%10[nH]c%10ccccc%12%10)CC(O)(CC)C%11)c(OC)cc9N(C)C58)C76)C(O)C5(CC)C=CCN6CCC43C65)C2)C1 (stereo not drawn) [1,4-bis(4-desacetyl VLB C-3 carboxamido)butane]
pKa' [1]: 7.5
pKa' (first value) [1]: 6.6

CCC1(O)CC2CN(CCc3c([nH]c4ccccc34)C(C(=O)OC)(c3cc4c(cc3OC)N(C)C3C(O)(C(=O)NCCCCCCNC(=O)C5(O)C(O)C6(CC)C=CCN7CCC8(c9cc(C%10(C(=O)OC)CC%11CN(CCc%12c%10[nH]c%10ccccc%12%10)CC(O)(CC)C%11)c(OC)cc9N(C)C58)C76)C(O)C5(CC)C=CCN6CCC43C65)C2)C1 (stereo not drawn) [1,6-bis(4-Desacetyl VLB C-3 carboxamido)hexane disulfate]
Percent Inhibition or Prolongation of Survival Time (P388 leukemia; P388, 0.9 mg./kg. × 3): 27%
Percent Inhibition or Prolongation of Survival Time (P388 leukemia; P388, 1.2 mg./kg. × 3): 74%

CCC1(O)CC2CN(CCc3c([nH]c4ccccc34)C(C(=O)OC)(c3cc4c(cc3OC)N(C)C3C(O)(C(=O)NCCCCCCNC(=O)C5(O)C(O)C6(CC)C=CCN7CCC8(c9cc(C%10(C(=O)OC)CC%11CN(CCc%12c%10[nH]c%10ccccc%12%10)CC(O)(CC)C%11)c(OC)cc9N(C)C58)C76)C(O)C5(CC)C=CCN6CCC43C65)C2)C1 (stereo not drawn) [1,6-bis(4-desacetyl VLB C-3 carboxamido)hexane]
pKa' [1]: 7.27
pKa' (first value) [1]: 5.27

CCC1(O)CN2CCc3c([nH]c4ccccc34)C(C(=O)OC)(c3cc4c(cc3OC)N(C)C3C(O)(C(=O)OC)CC5(CC)C=CCN6CCC43C65)CC(C2)C1O (stereo not drawn) [4-desacetoxy-3'-hydroxyvinblastine]
active in the treatment of experimental malignancies in animals [2]: active

CCC1(O)CC2CN(CCc3c([nH]c4ccccc34)C(C(=O)OC)(c3cc4c(cc3OC)N(C)C3C(O)(C(=O)OC)CC5(CC)C=CCN6CCC43C65)C2)C1 (stereo not drawn) [4-desacetoxyvinblastine]
active in the treatment of experimental malignancies in animals [2]: active

CCC1(O)CC2CN(CCc3c([nH]c4ccccc34)C(C(=O)OC)(c3cc4c(cc3OC)N(C)C3C(O)(C(=O)NCCCSSCCCNC(=O)C5(O)C(O)C6(CC)C=CCN7CCC8(c9cc(C%10(C(=O)OC)CC%11CN(CCc%12c%10[nH]c%10ccccc%12%10)CC(O)(CC)C%11)c(OC)cc9N(C)C58)C76)C(O)C5(CC)C=CCN6CCC43C65)C2)C1 (stereo not drawn) [bis [γ-(4-desacetyl VLB C-3 carboxamido)propyl]disulfide disulfate]
Percent Inhibition or Prolongation of Survival Time (B16 melanoma; B16, 0.6 mg./kg. × 3): 99%
number of indefinite survivors (B16 melanoma; B16, 0.6 mg./kg. × 3): 8
Percent Inhibition or Prolongation of Survival Time (B16 melanoma; B16, 0.9 mg./kg. × 3): 61%
number of indefinite survivors (B16 melanoma; B16, 0.9 mg./kg. × 3): 5
Percent Inhibition or Prolongation of Survival Time (B16 melanoma; B16, 1.2 mg./kg. × 3): 68%
number of indefinite survivors (B16 melanoma; B16, 1.2 mg./kg. × 3): 8

CCC1(O)CC2CN(CCc3c([nH]c4ccccc34)C(C(=O)OC)(c3cc4c(cc3OC)N(C)C3C(O)(C(=O)NCCSCCNC(=O)C5(O)C(O)C6(CC)C=CCN7CCC8(c9cc(C%10(C(=O)OC)CC%11CN(CCc%12c%10[nH]c%10ccccc%12%10)CC(O)(CC)C%11)c(OC)cc9N(C)C58)C76)C(O)C5(CC)C=CCN6CCC43C65)C2)C1 (stereo not drawn) [bis[β-(4-Desacetyl VLB C-3 carboxamido)ethyl]sulfide disulfate]
Percent Inhibition or Prolongation of Survival Time (P388 leukemia; P388, 0.6 mg./kg. × 3): 34%
Percent Inhibition or Prolongation of Survival Time (P388 leukemia; P388, 0.9 mg./kg. × 3): 49%
Percent Inhibition or Prolongation of Survival Time (P388 leukemia; P388, 1.2 mg./kg. × 3): 33%

CCC12CN3CCc4c([nH]c5ccccc45)C(C(=O)OC)(c4cc5c(cc4OC)N(C)C4C(O)(C(=O)NCCSSCCNC(=O)C6(O)C(O)C7(CC)C=CCN8CCC9(c%10cc(C%11(C(=O)OC)CC%12CN(CCc%13c%11[nH]c%11ccccc%13%11)CC%11(CC)OC%12%11)c(OC)cc%10N(C)C69)C87)C(O)C6(CC)C=CCN7CCC54C76)CC(C3)C1O2 (stereo not drawn) [bis[β-(4-Desacetylleurosine C-3 carboxamido)ethyl]disulfide disulfate]
Percent Inhibition or Prolongation of Survival Time (P388 leukemia; P388, 15 mg./kg. × 3): 46%
Percent Inhibition or Prolongation of Survival Time (P388 leukemia; P388, 30 mg./kg. × 3): 55%

CCC1(O)CC2CN(CCc3c([nH]c4ccccc34)C(C(=O)OC)(c3cc4c(cc3OC)N(C)C3C(O)(C(=O)NCC[Se][Se]CCNC(=O)C5(O)C(O)C6(CC)C=CCN7CCC8(c9cc(C%10(C(=O)OC)CC%11CN(CCc%12c%10[nH]c%10ccccc%12%10)CC(O)(CC)C%11)c(OC)cc9N(C)C58)C76)C(O)C5(CC)C=CCN6CCC43C65)C2)C1 (stereo not drawn) [bis[β-(4-desacetyl VLB C-3 carboxamido)ethyl]diselenide]
pKa' [1]: 7.22
pKa' (first value) [1]: 5.10

CCC1(O)CC2CN(CCc3c([nH]c4ccccc34)C(C(=O)OC)(c3cc4c(cc3OC)N(C)C3C(O)(C(=O)NCCOCCNC(=O)C5(O)C(O)C6(CC)C=CCN7CCC8(c9cc(C%10(C(=O)OC)CC%11CN(CCc%12c%10[nH]c%10ccccc%12%10)CC(O)(CC)C%11)c(OC)cc9N(C)C58)C76)C(O)C5(CC)C=CCN6CCC43C65)C2)C1 (stereo not drawn) [bis[β-(4-desacetyl VLB C-3 carboxamido)ethyl]ether]
pKa' [1]: 7.21
pKa' (first value) [1]: 5.13

CCC12CN3CCc4c([nH]c5ccccc45)C(C(=O)OC)(c4cc5c(cc4OC)N(C)C4C(O)(C(=O)NCCSSCCNC(=O)C6(O)C(O)C7(CC)C=CCN8CCC9(c%10cc(C%11(C(=O)OC)CC%12CN(CCc%13c%11[nH]c%11ccccc%13%11)CC%11(CC)OC%12%11)c(OC)cc%10N(C)C69)C87)C(O)C6(CC)C=CCN7CCC54C76)CC(C3)C1O2 (stereo not drawn) [bis[β-(4-desacetylleurosine C-3 carboxamido)ethyl]disulfide]
pKa' [1]: 7.0
pKa' (first value) [1]: 5.3

CCC1(O)CC2CN(CCc3c([nH]c4ccccc34)C(C(=O)OC)(c3cc4c(cc3OC)N(C)C3C(O)(C(=O)NCCCNCCCNC(=O)C5(O)C(O)C6(CC)C=CCN7CCC8(c9cc(C%10(C(=O)OC)CC%11CN(CCc%12c%10[nH]c%10ccccc%12%10)CC(O)(CC)C%11)c(OC)cc9N(C)C58)C76)C(O)C5(CC)C=CCN6CCC43C65)C2)C1 (stereo not drawn) [bis[γ-(4-desacetyl VLB C-3 carboxamido)propyl]amine]
pKa' [1]: 7.17
pKa' (first value) [1]: 4.98
pKa' (third printed value) [1]: 10.18

CCC1(O)CC2CN(CCc3c([nH]c4ccccc34)C(C(=O)OC)(c3cc4c(cc3OC)N(C)C3C(O)(C(=O)NCCCSSCCCNC(=O)C5(O)C(O)C6(CC)C=CCN7CCC8(c9cc(C%10(C(=O)OC)CC%11CN(CCc%12c%10[nH]c%10ccccc%12%10)CC(O)(CC)C%11)c(OC)cc9N(C)C58)C76)C(O)C5(CC)C=CCN6CCC43C65)C2)C1 (stereo not drawn) [bis[γ-(4-desacetyl VLB C-3 carboxamido)propyl]disulfide]
pKa' [1]: 7.21
pKa' (first value) [1]: 5.20

CCC1CC2CN(CCc3c([nH]c4ccccc34)C(C(=O)OC)(c3cc4c(cc3OC)N(C)C3C(O)(C(=O)OC)C(OC(C)=O)C5(CC)C=CCN6CCC43C65)C2)C1 (stereo not drawn) [deoxy VLB "A"]
active in the treatment of experimental malignancies in animals [2]: active

CCC1(O)CC2CN(CCc3c([nH]c4ccccc34)C(C(=O)OC)(c3cc4c(cc3OC)N(C)C3C(O)(C(=O)NCCN(CCNC(=O)C5(O)C(O)C6(CC)C=CCN7CCC8(c9cc(C%10(C(=O)OC)CC%11CN(CCc%12c%10[nH]c%10ccccc%12%10)CC(O)(CC)C%11)c(OC)cc9N(C)C58)C76)CCNC(=O)C5(O)C(O)C6(CC)C=CCN7CCC8(c9cc(C%10(C(=O)OC)CC%11CN(CCc%12c%10[nH]c%10ccccc%12%10)CC(O)(CC)C%11)c(OC)cc9N(C)C58)C76)C(O)C5(CC)C=CCN6CCC43C65)C2)C1 (stereo not drawn) [tris [β-(4-desacetyl VLB C-3 carboxamido)ethyl]amine]
pKa' [1]: 7.25
pKa' (first value) [1]: 5.2
